Results: patent publication US9139811B2, “Composition for suspension culturing of stem cells” (SEOUL NATIONAL UNIVERSITY HOSPITAL, priority 2011, dated 2015)

Columns and labels:
[1] = system: Human mesenchymal stem cells (BM-MSC); test: Suspension culture of human mesenchymal stem cells, trypan blue staining and cell counting; type: cell-based; settings: for cell aggregation / apoptosis of non-aggregated single cells: 24 hours of culture, FIG. 2; for apoptosis of non-aggregated single cells: trypan blue staining
Protocol: Human mesenchymal stem cells (Lonza, Switzerland) were cultured in 10% FBS-containing α-MEM medium such that no contact inhibition occurred. […] Then, the cells were treated with 0.25% trypsin/EDTA and allowed to stand in a CO2 incubator at 37° C. for 30 seconds. The cells that dropped into the tube were collected, and the cells remaining in the dish were completely collected with 10% FBS-containing α-MEM, and the collected cells were centrifuged at 1500 rpm for 5 minutes. The supernatant medium was removed by suction, and the precipitated cells were suspended in 5 ml of EB medium (80% DMEM/F12 80%+20% serum replacement) and then centrifuged at 1500 rpm for 5 minutes. Then, the cells were suspended in 10 ml of medium (containing or not containing 20 μM Y27632) in a 100 Φ Petri dish at a density of 2.0×10^6 cells. After 24 hours, the aggregated cells were stained with trypan blue, and then counted with an automated cell counter (Invitrogen).

BCL-XL = test: Western blotting of BCL-XL expression in suspension-cultured cells; type: cell-based, human; settings: Y27632-treated vs control (naive) cells, FIG. 3
Protocol: (§1) In order to measure a change in the expression of an anti-apoptosis factor in a cell sample, the expression level of BCL-XL was measured at the protein level. In addition, the cells were collected after suspension culture for 6 hours, and the degree of phosphorylation of ERK which is involved in the activity of the cells was evaluated. Specifically, the cells were lysed with a reducing agent [Lysis PreMix (4° C. stock)+NaF ([…], ×100)+orthovanadate (200 mM, ×200)+proteinase inhibitor cocktail (1 tablet/10 ml)], and then electrophoresed on SDS-polyacrylamide gel. Then, the cells were transferred to a PVDF transfer membrane (Millipore), after which a change in the expression of the protein was examined by a primary antigen-antibody reaction using BCL-xl (Santa Cruz Biotechnology) and a secondary antigen-antibody reaction using anti-rabbit IgG and anti-mouse IgG.

[2] = system: HGF (hepatocyte growth factor); test: HGF ELISA of culture supernatant; type: cell-based, human; settings: vs untreated control cells and EDTA-treated control cells, FIG. 5
Text: (§2) In vivo conditions in which treatment of cells is required are mostly ischemic anoxic anaerobic conditions in which the cells are injured or broken, and one of major factors in the conditions is HGF (hepatocyte growth factor). Thus, in order to examine the expression level of the hepatocyte growth factor HGF, the supernatant was collected from the cell sample and analyzed by ELISA (enzyme-linked immunosorbent assay) using a HGF-specific antibody according to the manufacturer's protocol.

[3] = system: HGF (hepatocyte growth factor); test: Suspension culture of single cells using E-cadherin blocker: HGF expression; type: cell-based, human; settings: aggregation inhibited with E-cadherin blocking antibody, Y-27632 for 24 hours, FIG. 9
Text: as §2
In order to use E-cadherin to induce single-cell culture during suspension culture, the cells were treated with an E-cadherin blocker to inhibit the induction of cell aggregation during suspension culture. Specifically, human mesenchymal stem cells were cultured in 10% FBS-containing α-MEM medium such that no contact inhibition occurred. When a confluence of about 80% was reached, the medium was removed by suction for cell counting, and the cells were washed with PBS (calcium-free and magnesium-free). Then, the cells were treated with 0.25% trypsin/EDTA and allowed to stand in a CO2 incubator at 37° C. for 30 seconds. The cells that dropped into the tube were collected, and the cells remaining in the dish were completely collected with 10% FBS-containing α-MEM, and the collected cells were centrifuged at 1500 rpm for 5 minutes. […]

[4] = system: ERK (extracellular signal-regulated kinase); test: Western blotting of ERK phosphorylation in suspension-cultured cells; type: cell-based, human; settings: suspension culture for 6 hours, Y27632-treated vs control (naive) cells, FIG. 4
Protocol: as §1

[5] = system: Human mesenchymal stem cells; test: Suspension culture of human mesenchymal stem cells under anoxic anaerobic condition and cell counting; type: cell-based; settings: for number of dead cells / number of viable cells / total number of cells / viability: anaerobic condition, 20 μM Y27632
Protocol: Human mesenchymal stem cells were cultured in 10% FBS-containing α-MEM medium such that no contact inhibition occurred. […] Then, the cells were treated with 0.25% trypsin/EDTA and allowed to stand in a CO2 incubator at 37° C. for 30 seconds. The cells that dropped into the tube were collected, and the cells remaining in the dish were completely collected with 10% FBS-containing α-MEM, and the collected cells were centrifuged at 2000 rpm for 5 minutes. The supernatant medium was removed by suction, and the precipitated cells were suspended in 5 ml of EB medium (80% DMEM/F12 80%+20% serum replacement) and then centrifuged at 1500 rpm for 5 minutes. Then, the cells were suspended in 10 ml of medium (containing or not containing 20 μM Y27632) in a 100 0 Petri dish at a density of 2.0×10^6 cells. Then, the cells were placed in an anoxic pack (BD Science) to induce an anoxic anaerobic condition. […]

[6] = 20 μM Y27632, suspension culture 24 hours, trypan blue

C[C@@H](N)[C@H]1CC[C@H](C(=O)Nc2ccncc2)CC1.Cl.Cl (relative stereo) [Y27632, trans-4-[(1R)-1-Aminoethyl]-N-4-pyridinyl-cyclohexanecarboxamide, 2HCl]
total number of cells ([1]; 20 μM Y27632, suspension culture 24 hours): 1.8×10^6
number of dead cells [1, 6]: 0.54×10^6
number of viable cells [1, 6]: 1.26×10^6
viability [1, 6]: 70%
cell aggregation [1]: further increased
apoptosis of non-aggregated single cells [1]: prevented
expression of the anti-apoptosis factor BCL-XL (BCL-XL): significantly increased
expression level of HGF [2]: significantly higher
HGF efficiency (expression level of HGF) [3]: increased
phosphorylation of ERK [4]: significantly increased
number of dead cells ([5]; 6 hours of culture): 2.4×10^5
number of viable cells ([5]; 6 hours of culture): 1.2×10^6
total number of cells ([5]; 6 hours of culture): 1.6×10^6
viability ([5]; 6 hours of culture): 84%
number of dead cells ([5]; 24 hours of culture): 1.6×10^5
number of viable cells ([5]; 24 hours of culture): 1.24×10^6
total number of cells ([5]; 24 hours of culture): 1.4×10^6
viability ([5]; 24 hours of culture): 90%
apoptosis of single cells ([5]; anoxic anaerobic condition, FIG. 7): did not undergo apoptosis

O=C(O)CN(CCN(CC(=O)O)CC(=O)O)CC(=O)O [EDTA]
cell aggregation [1]: no cell aggregation occurred
apoptosis of non-aggregated single cells [1]: apoptosis occurred in all the cells
